Data on six compounds can be found in US20240174618A1, “SUBSTITUTED (2-HETEROARYLOXYPHENYL)SULFONATES, SALTS THEREOF AND THEIR USE AS HERBICIDAL AGENTS” (Bayer Aktiengesellschaft, priority 2021, published 2024).

Format in all cases: in vivo
The subject of series [1] is Avena fatua (AVEFA). In words: C. Herbicidal pre-emergence efficacy, AVEFA. The following applies: 320 g/ha, scored after about 3 weeks. The source says: (§1) Seeds of monocotyledonous and dicotyledonous weed plants and crop plants were placed in plastic or organic planting pots and covered with soil. The compounds of the invention, formulated in the form of wettable powders (WP) or as emulsion concentrates (EC), were then applied to the surface of the covering soil as aqueous suspension or emulsion with addition of 0.5% additive at a water application rate equivalent to 600 l/ha (converted). After the treatment, the pots were placed in a greenhouse and kept under good growth conditions for the test plants. After about 3 weeks, the efficacy of the preparations was scored visually in comparison with untreated controls as percentages. For example, • 100% efficacy=plants have died, • 0% efficacy=like untreated control plants.
(§2) Tables C1a to C14b below show the effects of selected compounds of the general formula (I) according to table 1 on various harmful plants at an application rate corresponding to 320 g/ha or less, which were obtained by the experimental procedure mentioned above.

The subject of series [2] is Digitaria sanguinalis (DIGSA). In words: E. Herbicidal post-emergence efficacy, DIGSA. As for the experimental part:
Seeds of monocotyledonous and dicotyledonous weeds and crop plants were placed in sandy loam in plastic or organic planting pots, covered with soil and cultivated in a greenhouse under controlled growth conditions. 2 to 3 weeks after sowing, the test plants were treated at the one-leaf stage. The compounds of the invention, formulated in the form of wettable powders (WP) or as emulsion concentrates (EC), were then sprayed onto the green parts of the plants as aqueous suspension or emulsion with addition of 0.5% additive at a water application rate of 600 l/ha (converted). After the test plants had been kept in the greenhouse under optimum growth conditions for about 3 weeks, the activity of the preparations was rated visually in comparison to untreated controls.
For example, • 100% efficacy=plants have died, • 0% action=like untreated control plants.
Tables E1a to E12b below show the effects of selected compounds of the general formula (I) according to table 1 on various harmful plants at an application rate corresponding to 320 g/ha or less, which were obtained by the experimental procedure mentioned above.

The test system of series [3] is Matricaria inodora (MATIN). In words: C. Herbicidal pre-emergence efficacy, MATIN. The following applies: scored after about 3 weeks. The essentials:
(§3)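 Pre-emergence test: formulated compounds sprayed as aqueous suspension or emulsion with 0.5% additive at 600 l/ha onto soil covering sown seeds, at rates corresponding to 320 g/ha or less. After about 3 weeks in greenhouse, efficacy scored visually as percent versus untreated controls (100% = plants dead).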

The subject of series [4] is Lolium rigidum (LOLRI). In words: B. Herbicidal post-emergence efficacy, LOLRI. The essentials:
(§4)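 Post-emergence greenhouse test: one-leaf-stage plants, compound (WP/EC, +0.5% additive, 600 L/ha water, ≤1280 g/ha) applied to green parts; % efficacy scored visually vs untreated after ~3 wk; 100% = plants died.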

In series [5] the test system is Alopecurus myosuroides (ALOMY). In words: C. Herbicidal pre-emergence efficacy, ALOMY. The conditions noted are these: scored after about 3 weeks. A digest of the protocol:
as §3

Series [6] concerns Alopecurus myosuroides (ALOMY). In words: E. Herbicidal post-emergence efficacy, ALOMY. The essentials: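 Visual scoring against untreated plants was done roughly 3 weeks after spraying (0% = no effect, 100% = plants dead). Spray application at 320 g/ha or lower, 600 l/ha water with 0.5% additive, was made onto green parts of one-leaf-stage greenhouse plants grown 2-3 weeks in sandy loam.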

Series [7] relates to Poa annua (POAAN). In words: B. Herbicidal post-emergence efficacy, POAAN. The essentials: as §4
Series [8] has as its system Pharbitis purpurea (PHBPU). In words: C. Herbicidal pre-emergence efficacy, PHBPU. The conditions noted are these: scored after about 3 weeks.
Excerpt: as §1, §2

Series [9] relates to Triticum aestivum (TRZAS). In words: D. Pre-emergence effect on useful plants, TRZAS. The conditions noted are these: useful plant, application rate 80 g/ha. A digest of the protocol:
(§5)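 Seeds sown in pots and covered with soil; WP or EC formulations sprayed on the soil surface as aqueous suspension/emulsion with 0.5% additive at 600 l/ha water. Plants grown in greenhouse; crop damage scored visually after about 3 weeks as % versus untreated controls (100% = dead, 0% = like control).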

Series [10] relates to Zea mays (ZEAMX). In words: D. Pre-emergence effect on useful plants, ZEAMX. The conditions noted are these: useful plant, application rate 80 g/ha. A digest of the protocol: as §5

The structures appear in SMILES notation.

`O=S(=O)(CCCC(F)(F)F)Oc1ccccc1Oc1ncc(Cl)cn1` [Example I-10]: in series [1], the “Pre-emergence efficacy against AVEFA” value came out at 90%. Besides, the “Post-emergence efficacy against DIGSA in %” value in series [2] (application rate 80 g/ha) and in series [2] (application rate 320 g/ha) was 90% throughout. Besides, the “Pre-emergence efficacy against MATIN” value in [3] (80 g/ha) came out at 90%; in [3] (320 g/ha), 100%. The “Post-emergence efficacy against LOLRI” value turned out to be 90% in [4] (320 g/ha) and 100% in series [4] (1280 g/ha). For the same compound, the “Pre-emergence efficacy against ALOMY” value in series [5] (80 g/ha) and in [5] (320 g/ha) was 100% in each case. The “Post-emergence efficacy against ALOMY in %” value in series [6] (application rate 80 g/ha) stood at 90%; in series [6] (application rate 320 g/ha), 100%. The “Post-emergence efficacy against POAAN” value in [7] (1280 g/ha) is given as 90%. Moreover, the “Pre-emergence efficacy against PHBPU” value in [8] (80 g/ha) and in series [8] (320 g/ha) was 100% throughout.

Consider `O=S(=O)(CCCCl)Oc1c(F)cccc1Oc1ncc(Cl)cn1` [Example I-14], for which, in series [1], the “Pre-emergence efficacy against AVEFA” value is 80%. The “Post-emergence efficacy against LOLRI” value in series [4] (1280 g/ha) was determined as 100%. Besides, the “Pre-emergence efficacy against ALOMY” value is listed as 90% in [5] (80 g/ha) and 100% in series [5] (320 g/ha). For the same compound, the “Post-emergence efficacy against ALOMY in %” value in series [6] (application rate 320 g/ha) is reported as 90%. For the same compound, the “Post-emergence efficacy against POAAN” value in [7] (80 g/ha) turned out to be 90%; in series [7] (320 g/ha) it was 100%; in series [7] (1280 g/ha), 100%.

Consider `O=S(=O)(CCCCl)Oc1ccccc1Oc1ncc(Cl)cn1` [Example I-2], for which the “Pre-emergence efficacy against AVEFA” value in series [1] is 100%. In series [3] (320 g/ha), the “Pre-emergence efficacy against MATIN” value was determined as 100%. The “Post-emergence efficacy against LOLRI” value in [4] (1280 g/ha) is given as 90%. Besides, the “Pre-emergence efficacy against ALOMY” value in series [5] (80 g/ha) is listed as 90%; in [5] (320 g/ha), 100%. Besides, the “Post-emergence efficacy against ALOMY in %” value in [6] (application rate 320 g/ha) is recorded as 90%. Moreover, the “Pre-emergence efficacy against TRZAS in %” value in series [9] is 0%. The “Post-emergence efficacy against POAAN” value was 90% in series [7] (80 g/ha), 100% in [7] (320 g/ha) and 100% in [7] (1280 g/ha). The “Pre-emergence efficacy against PHBPU” value in [8] (320 g/ha) is 90%.

For `O=S(=O)(CC1CC(F)(F)C1)Oc1c(F)cccc1Oc1ncc(Cl)cn1` [Example I-53], the “Pre-emergence efficacy against AVEFA” value in [1] came out at 80%. Besides, the “Post-emergence efficacy against DIGSA in %” value in series [2] (application rate 80 g/ha) and in series [2] (application rate 320 g/ha) was 90% throughout. Besides, the “Pre-emergence efficacy against MATIN” value in series [3] (320 g/ha) is 90%. Besides, the “Post-emergence efficacy against LOLRI” value in [4] (1280 g/ha) is listed as 90%. The entries for the “Pre-emergence efficacy against ALOMY” value in series [5] (80 g/ha) and in series [5] (320 g/ha) were 90% and 100%, respectively. In addition, the results for the “Post-emergence efficacy against ALOMY in %” value in [6] (application rate 80 g/ha) and in [6] (application rate 320 g/ha) were 90% and 100%, respectively. Besides, the “Post-emergence efficacy against POAAN” value in series [7] (80 g/ha), in [7] (320 g/ha) and in [7] (1280 g/ha) was 90% each time. Further, the “Pre-emergence efficacy against PHBPU” value in series [8] (80 g/ha) and in series [8] (320 g/ha) was 100% each time.

In the case of `O=S(=O)(CCC(F)(F)F)Oc1c(F)cccc1Oc1ncc(Cl)cn1` [Example I-48], the “Pre-emergence efficacy against AVEFA” value in series [1] came out at 100%. Further, the “Post-emergence efficacy against DIGSA in %” value in series [2] (application rate 320 g/ha) stood at 100%. Moreover, the “Pre-emergence efficacy against MATIN” value in series [3] (80 g/ha) and in series [3] (320 g/ha) was 100% in each case. Further, the “Post-emergence efficacy against LOLRI” value in series [4] (320 g/ha) and in series [4] (1280 g/ha) was 90% throughout. Besides, the “Pre-emergence efficacy against ALOMY” value in series [5] (80 g/ha) and in series [5] (320 g/ha) was 100% each time. In [6] (application rate 320 g/ha), the “Post-emergence efficacy against ALOMY in %” value was 100%. The “Post-emergence efficacy against POAAN” value in series [7] (80 g/ha), in series [7] (320 g/ha) and in series [7] (1280 g/ha) was 90% throughout. Further, the “Pre-emergence efficacy against ZEAMX in %” value in series [10] is 0%. The “Pre-emergence efficacy against PHBPU” value in series [8] (80 g/ha) and in series [8] (320 g/ha) was 100% throughout.

As to `O=S(=O)(CCC(F)(F)F)Oc1c(F)cccc1Oc1ncc(Br)cn1` [Example I-40], in series [1], the “Pre-emergence efficacy against AVEFA” value stood at 100%. The “Post-emergence efficacy against DIGSA in %” value is reported as 80% in [2] (application rate 80 g/ha) and 100% in series [2] (application rate 320 g/ha). Further, the “Pre-emergence efficacy against MATIN” value in series [3] (320 g/ha) turned out to be 80%. Further, in series [5] (320 g/ha), the “Pre-emergence efficacy against ALOMY” value turned out to be 100%. Further, in series [6] (application rate 320 g/ha), the “Post-emergence efficacy against ALOMY in %” value is recorded as 90%. The “Post-emergence efficacy against POAAN” value in series [7] (320 g/ha) and in series [7] (1280 g/ha) was 90% throughout. Besides, in series [8] (320 g/ha), the “Pre-emergence efficacy against PHBPU” value is given as 100%.
